Assay results as given in ChEMBL document CHEMBL5046276 (J Med Chem, 2022).

What was measured:
Plasmodium falciparum [1] = test: Antimalarial activity against asexual blood stage chloroquine-resistant Plasmodium falciparum Dd2 assessed as parasite growth inhibition incubated for 72 hrs by SYBR Green I staining based fluorescence analysis; type: functional, organism-based; conditions: Dd2, 72 h
Plasmodium falciparum [2] = test: Antimalarial activity against asexual blood stage wild-type Plasmodium falciparum 3D7 assessed as parasite growth inhibition incubated for 72 hrs by SYBR Green I staining based fluorescence analysis; type: functional, organism-based; conditions: 3D7, 72 h
[3] = Cytotoxicity against human HepG2 cells incubated for 72 hrs by CCK-8 assay
[4] = Selectivity index, ratio of IC50 for cytotoxicity against HEK293T cells to IC50 for antimalarial activity against asexual blood stage wild-type Plasmodium falciparum 3D7; type: toxicity, cell-based; conditions: human, read-out: Ratio IC50
[5] = Cytotoxicity against HEK293T cells incubated for 72 hrs by CCK-8 assay; conditions: human
[6] = Selectivity index, ratio of IC50 for cytotoxicity against human HepG2 cells to IC50 for antimalarial activity against asexual blood stage wild-type Plasmodium falciparum 3D7; type: toxicity, cell-based; conditions: read-out: Ratio IC50
[7] = Metabolic stability in mouse liver microsomes assessed as half life at […] incubated for 45 mins in presence of NADPH by LC/MS analysis; type: ADME, Microsome; conditions: liver microsomes
[8] = Metabolic stability in mouse liver microsomes assessed as intrinsic clearance at […] incubated for 45 mins in presence of NADPH by LC/MS analysis; type: ADME, Microsome; conditions: read-out: CLH
Plasmodium falciparum [9] = test: Antimalarial activity against asexual blood stage quinine-resistant Plasmodium falcipuram C2A assessed as parasite growth inhibition incubated for 72 hrs by SYBR Green I staining based fluorescence analysis; type: functional, organism-based
Plasmodium falciparum [10] = test: Antimalarial activity against asexual blood stage sulfadoxine-pyrimethamine/mefloquine-resistant Plasmodium falcipuram CP286 assessed as parasite growth inhibition incubated for 72 hrs by SYBR Green I staining based fluorescence analysis; type: functional, organism-based; conditions: CP286, 72 h
Plasmodium falciparum [11] = test: Antimalarial activity against asexual blood stage chloroquine-resistant Plasmodium falcipuram GB4 assessed as parasite growth inhibition incubated for 72 hrs by SYBR Green I staining based fluorescence analysis; type: functional, organism-based; conditions: GB4, 72 h
Plasmodium falciparum [12] = test: (§1) Antimalarial activity against ART-resistant Plasmodium falcipuram 6320 harbouring C580Y mutant infected in human RBC assessed as reduction in parasitemia in blood smear by measuring parasite survival ratio at ring stage at upto 700 nM incubated for 6 hrs followed by compound washout and replacement with fresh medium without compounds and measured after 66 hrs by ring stage survival assay; type: functional; conditions: dose nM <=700
Plasmodium falciparum [13] = test: as §1, with “wild-type” for “ART-resistant”, “3D7” for “6320 harbouring C580Y mutant”; type: functional; conditions: dose nM <=700
Plasmodium falciparum [14] = test: as §1, with “6218” for “6320”; type: functional; conditions: dose nM <=700

Structure (SMILES) | IC50 (Plasmodium falciparum [1]) [nM] | IC50 (Plasmodium falciparum [2]) [nM] | IC50 at 72 h [3] [nM] | selectivity ratio [4] | IC50 at 72 h [5] [nM] | selectivity ratio [6] | half-life [7] [h] | CLint scaled [8] [mL/min/kg] | IC50 (Plasmodium falciparum [9]) [nM] | IC50 (Plasmodium falciparum [10]) [nM] | IC50 (Plasmodium falciparum [11]) [nM] | Activity (Plasmodium falciparum [12]) [%] | Activity (Plasmodium falciparum [13]) [%] | Activity (Plasmodium falciparum [14]) [%]
O=C(NO)c1cnc(N2CCC3(CN(Cc4ccc(-c5ccccc5)cc4)C3)C2)nc1 | 43.4 | 22.9 | 3140 | 174 | 3990 | 137 |  |  |  |  |  |  |  | 
COc1ccc2c(CN3CC4(CCN(c5ncc(C(=O)NO)cn5)C4)C3)cn(C)c2c1 | 5.1 | 5.97 | 630 | 117 | 700 | 106 |  |  |  |  |  |  |  | 
Cn1cc(CN2CC3(CCN(c4ncc(C(=O)NO)cn4)C3)C2)c2ccncc21 | 9.59 | 4.57 | > 20000 | > 1370 | > 20000 | > 1370 |  |  |  |  |  |  |  | 
O=C(NO)c1cnc(N2CCC3(CN(Cc4ccccc4)C3)C2)nc1 | 66.9 | 25.5 | 420 | 78 | 1980 | 16 |  |  |  |  |  |  |  | 
Cc1ccc2c(CN3CC4(CCN(c5ncc(C(=O)NO)cn5)C4)C3)cn(C)c2c1 | 3.25 | 4.45 | 500 | 247 | 1100 | 112 |  |  |  |  |  |  |  | 
Cl.O=C(NO)c1cnc(N2CCC3(CN(Cc4cnc5ccccc5c4)C3)C2)nc1 | 2.58 | 3.8 | 2040 | 953 | 3620 | 537 | 0.222 | 410 |  |  |  |  |  | 
O=C(NO)c1cnc(N2CCC3(CN(Cc4cccc5cccnc45)C3)C2)nc1 | 16.2 | 13.2 | 2660 | 423 | 5580 | 202 |  |  |  |  |  |  |  | 
O=C(NO)c1cnc(N2CCC3(CN(Cc4cc5ccccc5o4)C3)C2)nc1 | 5.16 | 7.16 | 3890 | 785 | 5620 | 543 |  |  |  |  |  |  |  | 
O=C(NO)c1cnc(N2CCC3(CN(Cc4ccco4)C3)C2)nc1 | 116 | 76.2 | 10900 | > 263 | 20000 | 144 |  |  |  |  |  |  |  | 
Cl.Cn1cc(CN2CC3(CCN(c4ncc(C(=O)NO)cn4)C3)C2)c2ccc(Br)cc21 | 2.39 | 1.97 | 750 | 365 | 720 | 381 | 6.64 | 13.7 |  |  |  |  |  | 
O=C(NO)c1cnc(N2CCC3(CN(Cc4cc5ccccc5s4)C3)C2)nc1 | 8.57 | 5.78 | 3610 | 794 | 4590 | 625 |  |  |  |  |  |  |  | 
O=C(NO)c1cnc(N2CCC3(CN(Cc4ccsc4)C3)C2)nc1 | 3.86 | 6.25 | 2460 | 739 | 4620 | 394 |  |  |  |  |  |  |  | 
Cn1cc(CN2CC3(CCN(c4ncc(C(=O)NO)cn4)C3)C2)c2cnccc21 | 14.2 | 22 | > 20000 | > 908 | > 20000 | > 908 |  |  |  |  |  |  |  | 
O=C(NO)c1cnc(N2CCC3(CN(Cc4csc5ccccc45)C3)C2)nc1 | 7.88 | 10 | 490 | 257 | 2580 | 49 |  |  |  |  |  |  |  | 
O=C(NO)c1cnc(N2CCC3(CN(Cc4ccc5ccccc5c4)C3)C2)nc1 | 13.2 | 9.89 | 2130 | 442 | 4370 | 215 |  |  |  |  |  |  |  | 
O=C(NO)c1cnc(N2CCC3(CN(Cc4cccc5ccccc45)C3)C2)nc1 | 4.38 | 4.46 | > 770 | 605 | 2700 | > 173 |  |  |  |  |  |  |  | 
O=C(NO)c1cnc(N2CCC3(CN(CC4CCCC4)C3)C2)nc1 | 18.9 |  | 1060 |  |  | 64 |  |  |  |  |  |  |  | 

Structure (SMILES) | IC50 (Plasmodium falciparum [1]) [nM] | IC50 (Plasmodium falciparum [2]) [nM] | IC50 at 72 h [3] [nM] | selectivity ratio [4] | IC50 at 72 h [5] [nM] | selectivity ratio [6] | half-life [7] [h] | CLint scaled [8] [mL/min/kg] | IC50 (Plasmodium falciparum [9]) [nM] | IC50 (Plasmodium falciparum [10]) [nM] | IC50 (Plasmodium falciparum [11]) [nM] | Activity (Plasmodium falciparum [12]) [%] | Activity (Plasmodium falciparum [13]) [%] | Activity (Plasmodium falciparum [14]) [%]
Cn1cc(CN2CC3(CCN(c4ncc(C(=O)NO)cn4)C3)C2)c2cccnc21 | 7.83 | 10.4 | > 12200 | 594 | 6170 | > 1170 |  |  |  |  |  |  |  | 
O=C(NO)c1cnc(N2CCC3(CN(Cc4cnc5ccccn45)C3)C2)nc1 | 8.5 | 12.2 | 20000 | 195 | 2370 | > 1640 |  |  |  |  |  |  |  | 
O=C(NO)c1cnc(N2CCC3(CN(Cc4ccc5ncccc5c4)C3)C2)nc1 | 11.9 | 17.1 | 1540 | 102 | 1740 | 90 |  |  |  |  |  |  |  | 
O=C(NO)c1cnc(N2CCC3(CN(Cc4cccnc4)C3)C2)nc1 | 2230 | 47 | 11400 | > 426 | > 20000 | 243 |  |  |  |  |  |  |  | 
O=C(NO)c1cnc(N2CCC3(CN(CC4CCCCC4)C3)C2)nc1 | 19 | 22.2 | 1030 | 160 | 3560 | 46 |  |  |  |  |  |  |  | 
C[C@H]1[C@@H](O)O[C@@H]2O[C@@]3(C)CC[C@H]4[C@H](C)CC[C@@H]1[C@@]24OO3 [ARTENIMOL] | 2.78 | 2.85 |  |  |  |  |  |  | 2.08 | 8.1 | 2.34 |  |  | 
O=C(NO)c1cnc(N2CCC3(CN(Cc4ccoc4)C3)C2)nc1 | 40.1 | 37.6 | 6030 | 431 | 16200 | 160 |  |  |  |  |  |  |  | 
Cn1cc(CN2CC3(CCN(c4ncc(C(=O)NO)cn4)C3)C2)c2ccccc21 | 4.54 | 4.59 | 720 | 331 | 1520 | 157 |  |  |  |  |  |  |  | 
O=C(NO)c1cnc(N2CCC3(CN(Cc4cccs4)C3)C2)nc1 | 59.1 | 15.2 | 2510 | > 324 | > 4930 | 165 |  |  |  |  |  |  |  | 
C[C@@H]1CC[C@H]2[C@@H](C)C(=O)O[C@@H]3O[C@@]4(C)CC[C@@H]1[C@]32OO4 [ARTEMISININ] |  |  |  |  |  |  |  |  |  |  |  | 8 | 0.1 | 8
O=C(NO)c1cnc(N2CCC3(CN(Cc4c5ccccc5cc5ccccc45)C3)C2)nc1 | 5.56 | 9.31 | 31000 | 49 | 460 |  |  |  |  |  |  |  |  | 
Cn1nc(CN2CC3(CCN(c4ncc(C(=O)NO)cn4)C3)C2)c2ccccc21 | 12.7 | 9.79 | 2130 | 767 | 7310 | 218 |  |  |  |  |  |  |  | 
O=C(NO)c1cnc(N2CCC3(CN(Cc4cncc5ccccc45)C3)C2)nc1 | 12.4 | 8.63 | 2230 | 934 | 8060 | 258 |  |  |  |  |  |  |  | 
O=C(NO)c1cnc(N2CCC3(CN(Cc4ccccn4)C3)C2)nc1 | 30.8 | 44.6 | 8370 | > 449 | > 20000 | 188 |  |  |  |  |  |  |  | 
O=C(NO)c1cnc(N2CCC3(CN(Cc4ccncc4)C3)C2)nc1 | 8420 | 137 | 20000 | > 146 | > 20000 | > 146 |  |  |  |  |  |  |  | 
O=C(NO)c1cnc(N2CCC3(CN(Cc4cccc5cnccc45)C3)C2)nc1 | 12.1 | 16.6 | 2210 | 97 | 1610 | 133 |  |  |  |  |  |  |  | 
O=C(NO)c1cnc(N2CCC3(CN(Cc4cccc5ccncc45)C3)C2)nc1 | 5.84 | 6.13 | 1840 | 152 | 930 | 300 |  |  |  |  |  |  |  | 
